Columns and labels:
[1] = tested on: Hana3A cells expressing Olfr110; test: Boyden chamber chemotaxis assay, Hana3A cells expressing Olfr110; assay type: cell-based; conditions: 2-PF 10, 100 and 1000 μM
Procedure: Chemotaxis was measured using a multi-well Boyden chamber. More specifically, a polycarbonate filter (8 μm pore; #101-8; Neuroprobe) was coated with […] fibronectin (Sigma-Aldrich) in PBS for 2 hours, and the coated filter was installed in a Boyden chamber. In addition, the bottom side of a plate was filled with serum-free DMEM containing 2-PF or a culture supernatant. Subsequently, microglia or Hana3A cells were transfected with an OR construct, and then suspended in serum-free DMEM. The microglia were kept at 37° C. for 4 hours, and the Hana3A cells for 8 hours. Cells that migrated to the bottom surface were fixed with 4% PFA, and stained with hematoxylin for 10 minutes. The migrated cells were counted under a light microscope in five randomly selected fixed […] fields (200×) using a scored eyepiece. A chemotaxis index was defined as the migrated cell number normalized against the untreated group.

[2] = tested on: primary microglia; test: Boyden chamber chemotaxis of primary microglia; assay type: cell-based, mouse; conditions: 100, 300 and 500 μM
Procedure: In this example, microglia or astrocytes were primarily extracted from the cerebral cortex of E18.5 mouse embryos (Tamashiro et al., 2012), and cultured as described in Example 1. More specifically, the mouse embryonic cortex was collected, stored in a cold supernatant (#14170-112; Thermo Fisher Scientific), and pretreated in a 0.25% trypsin solution (#15090-046; Thermo Fisher Scientific) at 37° C. for 20 minutes. Afterward, cells were plated in a minimum nutrient medium supplemented with 10% FBS (#SH30919.03; Hyclone), 2 mM L-glutamine (#25030-081; Thermo Fisher Scientific), 0.04% glucose (#G7021; Sigma Aldrich), and 1% penicillin/streptomycin (#15140-122; Thermo Fisher Scientific), and filtered through a […] strainer (#352340; Thermo Fisher Scientific). The microglia were plated at a density of 1.2×10^7 cells in a T75 flask coated with poly-D-lysine (#P7280; Sigma Aldrich). […] Purities of the collected microglia and astrocytes were evaluated by qRT-PCR assay and immunocytochemistry using a marker gene and proteins such as Iba-1 and Gfap.
Chemotaxis was measured using a multi-well Boyden chamber. […] The migrated cells were counted under a light microscope in five randomly selected fixed […] fields (200×) using a scored eyepiece. […]

[3] = tested on: microglia; test: GFP intensity / morphology of microglia in CX3CR1 GFP/+ mice; assay type: in vivo, mouse; conditions: 2-PF treated CX3CR1 GFP/+ mice
Procedure: To analyze a morphological change in microglia activation, 9-week-old CX3CR1^GFP/+ mice were used. Two hours after an IP containing or not containing 2-PF was injected into two mice, brain sections were collected by cryosection. A 40-μm-thick brain tissue fragment was prepared by […], and a GFP signal of microglia was measured using a 40× magnification confocal microscope. A GFP-pixel signal of microglia was analyzed using Zeiss ZEN Software (Zeiss).

[4] = tested on: primary microglia; test: ROS / superoxide generation in primary microglia; assay type: cell-based, mouse
Procedure: Superoxide concentrations were calculated by measuring the degree ofcytochrome c reduction using a VersaMax microplate reader (Babior et al., 1973). Microglia were cultured in a 96 well plate at a concentration of 1.0×10^5 cells/well, and the microglia were activated by a 10 μM ATP solution containing 2-PF and cytochrome c, or a solution in which Sup is mixed with cytochalasin B (5 μM; #C66762; Sigma Aldrich). The concentration of ROS was measured through a change in light absorption every minute for 25 minutes at 550 nm.
ROS levels were measured using 2′,7′-dichlorodihydrofluorescein diacetate (DCF-DA, #D6883; Sigma Aldrich) by a previously described method with minor modifications (Bae et al., 2001). More specifically, primary microglia were seeded in 24-well plates (5.0×10^5 cells/well) for 24 hours, and then treated with 10 μM DCF-DA at 37° C. for 30 minutes. One plate was treated with 2-PF, and the other one was not. The cells in each well were measured using a flow cytometer (FACS Accuri™ C6; BD Biosciences). MFI was measured as described above.

[5] = tested on: Olfr110; test: Immunostaining of Olfr110 expression after treatment; assay type: cell-based, mouse
Procedure: Subsequently, cells were washed in PBS, and fixed with 4% paraformaldehyde (#6148; Sigma Aldrich) for 5 minutes. The cells were then incubated in PBS containing 4% normal horse serum (#008-000-121; Jackson ImmunoResearch) and 0.1% TWEEN® 20 (#P9416; Sigma-Aldrich) at room temperature for 1 hour. Afterward, the cells were […] at 4° C. overnight with primary antibodies listed below. The antibodies are as follows: Olfr110 (rabbit-anti-Olfr110; 1:10,000; #ab177327; Abcam), Iba-1 (goat-anti-Iba-1; 1:1,000; #ab5076; Abcam), and GFAP (mouse-anti-GFAP; 1:1,000; #556330; BD Biosciences). Samples were incubated in a PBS solution containing 0.1% TWEEN® 20 (#P9416; Sigma-Aldrich) with secondary antibodies at room temperature for 1 hour. The secondary antibodies are as follows: Cy3-conjugated donkey anti-rabbit IgG (1:1,000; #711-165-152; Jackson ImmunoResearch), Alexa488-conjugated donkey anti-goat IgG (1:1,000; #705-545-147; Jackson ImmunoResearch), and Alexa488-conjugated donkey anti-mouse IgG (1:1,000; #715-545-150; Jackson ImmunoResearch). Afterward, the cells were mounted with a Vectashield fluorescent material containing DAPI (#H-1200; Vector Laboratories), and images were obtained using a confocal laser scanning microscope, LSM 700, and the ZEN software (Zeiss). […]

In the case of `CCCCCc1ccco1` [2-PF, 2-pentylfuran], the “mobility of Olfr110 cells (chemotaxis assay)” value [1] is reported as “increased in mobility in a concentration-dependent manner”, the chemotaxis [2] is reported as “significantly increased in a concentration-dependent manner” and the “intensity of GFP expression of microglia” value [3] is reported as “highly increased”. For the same compound, the “ROS generation on top of Sup MOI 5” value ([4]; 500 μM 2-PF with Sup MOI 5) was “further increased”, the ROS secretion ([4]; 100, 300 and 500 μM) was “significantly increased in a concentration-dependent manner” and the Olfr110 protein level [5] was “significantly increases”.
